Measured values as given in PubChem BioAssay (NCI).
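96-well plates; 48 h exposure; 5 concentrations. Endpoints by linear interpolation between flanking doses. Not reached: highest tested concentration assigned. The concentration for full growth arrest is given as TGI.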

Legend:
Experiment in all cases: inhibition of tumour cell growth, NCI panel, 48 h
NCI-H522 lung = system: NCI-H522 lung
M14 melanoma = system: M14 melanoma
EKVX NSCLC = system: EKVX NSCLC
HCT-116 colon = system: HCT-116 colon
BT-549 breast = system: BT-549 breast
A549 NSCLC = system: A549 NSCLC
SF-268 CNS = system: SF-268 CNS
SW-620 colon = system: SW-620 colon
UACC-62 melanoma = system: UACC-62 melanoma
OVCAR-4 ovarian = system: OVCAR-4 ovarian
NCI-H23 lung = system: NCI-H23 lung
IGROV1 ovarian = system: IGROV1 ovarian
UACC-257 melanoma = system: UACC-257 melanoma
HS 578T breast = system: HS 578T breast
SK-MEL-28 melanoma = system: SK-MEL-28 melanoma
MDA-N = system: MDA-N
MALME-3M melanoma = system: MALME-3M melanoma
HL-60(TB) leukemia = system: HL-60(TB) leukemia
KM12 colon = system: KM12 colon
HT29 colon = system: HT29 colon
NCI-H460 lung = system: NCI-H460 lung
CAKI-1 renal = system: CAKI-1 renal
UO-31 renal = system: UO-31 renal
RPMI-8226 leukemia = system: RPMI-8226 leukemia
PC-3 prostate = system: PC-3 prostate
COLO 205 colon = system: COLO 205 colon
SN12C renal = system: SN12C renal
OVCAR-5 ovarian = system: OVCAR-5 ovarian
786-0 renal = system: 786-0 renal
HCC-2998 colon = system: HCC-2998 colon
ACHN renal = system: ACHN renal
MCF7 breast = system: MCF7 breast
MDA-MB-435 = system: MDA-MB-435
SNB-19 CNS = system: SNB-19 CNS
TK-10 renal = system: TK-10 renal
SF-295 CNS = system: SF-295 CNS
DU-145 prostate = system: DU-145 prostate
T-47D breast = system: T-47D breast
SK-MEL-5 melanoma = system: SK-MEL-5 melanoma
HOP-62 NSCLC = system: HOP-62 NSCLC
SF-539 CNS = system: SF-539 CNS
OVCAR-3 ovarian = system: OVCAR-3 ovarian
SNB-75 CNS = system: SNB-75 CNS
U251 CNS = system: U251 CNS
CCRF-CEM leukemia = system: CCRF-CEM leukemia
K-562 leukemia = system: K-562 leukemia
NCI/ADR-RES ovarian = system: NCI/ADR-RES ovarian
HOP-92 NSCLC = system: HOP-92 NSCLC
NCI-H226 lung = system: NCI-H226 lung
LOX IMVI melanoma = system: LOX IMVI melanoma
HCT-15 colon = system: HCT-15 colon
SK-OV-3 ovarian = system: SK-OV-3 ovarian
SR leukemia = system: SR leukemia
OVCAR-8 ovarian = system: OVCAR-8 ovarian
MOLT-4 leukemia = system: MOLT-4 leukemia
SK-MEL-2 melanoma = system: SK-MEL-2 melanoma
MDA-MB-231 breast = system: MDA-MB-231 breast
RXF 393 renal = system: RXF 393 renal

`O=C1CSC(c2ccc(Cl)cc2)N1c1ccc(Oc2ccc(Cl)cc2)c(Cl)c1` (stereo unspecified) showed a TGI (NCI-H522 lung) of 23.3 µM, a TGI (M14 melanoma) of 33.3 µM and a TGI (EKVX NSCLC) of 27.2 µM. The TGI (HCT-116 colon) was 29.8 µM, the TGI (BT-549 breast) was 29 µM and the TGI (A549 NSCLC) was 34.5 µM. For the same molecule, the TGI (SF-268 CNS) was 24 µM, the TGI (SW-620 colon) was 45 µM and the TGI (UACC-62 melanoma) was 28.8 µM. It also gave a TGI (OVCAR-4 ovarian) of 28.1 µM, a TGI (NCI-H23 lung) of 31.4 µM and a TGI (IGROV1 ovarian) of 31.2 µM. It also gave a TGI (UACC-257 melanoma) of 33.2 µM, a TGI (HS 578T breast) of 27.5 µM and a TGI (SK-MEL-28 melanoma) of 35.4 µM. It also gave a TGI (MDA-N) of 30.4 µM, a TGI (MALME-3M melanoma) of 21.9 µM and a TGI (HL-60(TB) leukemia) of 39 µM. For the same molecule, the TGI (KM12 colon) was 29.4 µM, the TGI (HT29 colon) was 36.3 µM and the TGI (NCI-H460 lung) was 35.5 µM. The TGI (CAKI-1 renal) was 26 µM, the TGI (UO-31 renal) was 21 µM and the TGI (RPMI-8226 leukemia) was 63.8 µM. The TGI (PC-3 prostate) was 31.3 µM, the TGI (COLO 205 colon) was 34.3 µM and the TGI (SN12C renal) was 38.6 µM. The TGI (OVCAR-5 ovarian) was 29.6 µM, the TGI (786-0 renal) was 30.5 µM and the TGI (HCC-2998 colon) was 33.4 µM. It also gave a TGI (ACHN renal) of 31.2 µM, a TGI (MCF7 breast) of 44.1 µM and a TGI (MDA-MB-435) of 39 µM. For the same molecule, the TGI (SNB-19 CNS) was 30.2 µM, the TGI (TK-10 renal) was 33.2 µM and the TGI (SF-295 CNS) was 30.8 µM. It also gave a TGI (DU-145 prostate) of 27.2 µM, a TGI (T-47D breast) of 24.9 µM and a TGI (SK-MEL-5 melanoma) of 32.4 µM. The TGI (HOP-62 NSCLC) was 41.9 µM, the TGI (SF-539 CNS) was 30.4 µM and the TGI (OVCAR-3 ovarian) was 29 µM. The TGI (SNB-75 CNS) was 24.7 µM, the TGI (U251 CNS) was 36.2 µM and the TGI (CCRF-CEM leukemia) was 30.6 µM. The TGI (K-562 leukemia) was > 100 µM, the TGI (NCI/ADR-RES ovarian) was 35.3 µM and the TGI (HOP-92 NSCLC) was 30.3 µM. For the same molecule, the TGI (NCI-H226 lung) was 36.5 µM, the TGI (LOX IMVI melanoma) was 30.7 µM and the TGI (HCT-15 colon) was 29.5 µM. It also gave a TGI (SK-OV-3 ovarian) of 31.9 µM, a TGI (SR leukemia) of 41 µM and a TGI (OVCAR-8 ovarian) of 35.4 µM. It also gave a TGI (MOLT-4 leukemia) of 45 µM, a TGI (SK-MEL-2 melanoma) of 33.9 µM and a TGI (MDA-MB-231 breast) of 30.7 µM.
In the case of `COc1cc2c(c3oc4c(O)cccc4c(=O)c13)CC(C(C)(O)CO)O2` (stereo unspecified), the TGI (NCI-H522 lung) was > 100 µM, the TGI (M14 melanoma) was > 100 µM and the TGI (EKVX NSCLC) was > 100 µM. For the same molecule, the TGI (HCT-116 colon) was > 100 µM, the TGI (BT-549 breast) was > 100 µM and the TGI (A549 NSCLC) was > 100 µM. For the same molecule, the TGI (SF-268 CNS) was > 100 µM, the TGI (SW-620 colon) was > 100 µM and the TGI (UACC-62 melanoma) was > 100 µM. The TGI (NCI-H23 lung) was > 100 µM, the TGI (IGROV1 ovarian) was > 100 µM and the TGI (UACC-257 melanoma) was > 100 µM. For the same molecule, the TGI (HS 578T breast) was > 100 µM, the TGI (SK-MEL-28 melanoma) was > 100 µM and the TGI (MDA-N) was > 100 µM. The TGI (MALME-3M melanoma) was > 100 µM, the TGI (HL-60(TB) leukemia) was > 100 µM and the TGI (HT29 colon) was > 100 µM. For the same molecule, the TGI (NCI-H460 lung) was > 100 µM, the TGI (RXF 393 renal) was 79.8 µM and the TGI (CAKI-1 renal) was > 100 µM. For the same molecule, the TGI (UO-31 renal) was > 100 µM, the TGI (RPMI-8226 leukemia) was > 100 µM and the TGI (PC-3 prostate) was > 100 µM. For the same molecule, the TGI (COLO 205 colon) was > 100 µM, the TGI (SN12C renal) was > 100 µM and the TGI (OVCAR-5 ovarian) was > 100 µM. For the same molecule, the TGI (786-0 renal) was > 100 µM, the TGI (HCC-2998 colon) was > 100 µM and the TGI (ACHN renal) was > 100 µM. For the same molecule, the TGI (MCF7 breast) was 70.8 µM, the TGI (MDA-MB-435) was > 100 µM and the TGI (SNB-19 CNS) was > 100 µM. The TGI (TK-10 renal) was > 100 µM, the TGI (SF-295 CNS) was > 100 µM and the TGI (DU-145 prostate) was > 100 µM. For the same molecule, the TGI (T-47D breast) was > 100 µM, the TGI (SK-MEL-5 melanoma) was > 100 µM and the TGI (HOP-62 NSCLC) was > 100 µM. The TGI (SF-539 CNS) was > 100 µM, the TGI (OVCAR-3 ovarian) was > 100 µM and the TGI (U251 CNS) was > 100 µM. For the same molecule, the TGI (CCRF-CEM leukemia) was > 100 µM, the TGI (K-562 leukemia) was > 100 µM and the TGI (NCI/ADR-RES ovarian) was > 100 µM. The TGI (HOP-92 NSCLC) was > 100 µM, the TGI (NCI-H226 lung) was > 100 µM and the TGI (LOX IMVI melanoma) was > 100 µM. The TGI (HCT-15 colon) was > 100 µM, the TGI (SR leukemia) was > 100 µM and the TGI (OVCAR-8 ovarian) was > 100 µM. For the same molecule, the TGI (MOLT-4 leukemia) was 62.2 µM, the TGI (SK-MEL-2 melanoma) was > 100 µM and the TGI (MDA-MB-231 breast) was > 100 µM.
